Counter-ions that a name gives are not always drawn.
How the values were obtained:
human alpha2C receptors = target: T1, human alpha2C receptors (Homo sapiens, UniProt P18825); experiment: Determination of alpha2C antagonistic activity in vitro (FLIPR calcium assay); details: for Kb: Alpha 2C Adrenaline Kb, Kb calculated from IC50 with the Cheng-Prusoff equation, adrenaline as agonist, CHO cells, human alpha2C
T1 sequence (P18825 1-462): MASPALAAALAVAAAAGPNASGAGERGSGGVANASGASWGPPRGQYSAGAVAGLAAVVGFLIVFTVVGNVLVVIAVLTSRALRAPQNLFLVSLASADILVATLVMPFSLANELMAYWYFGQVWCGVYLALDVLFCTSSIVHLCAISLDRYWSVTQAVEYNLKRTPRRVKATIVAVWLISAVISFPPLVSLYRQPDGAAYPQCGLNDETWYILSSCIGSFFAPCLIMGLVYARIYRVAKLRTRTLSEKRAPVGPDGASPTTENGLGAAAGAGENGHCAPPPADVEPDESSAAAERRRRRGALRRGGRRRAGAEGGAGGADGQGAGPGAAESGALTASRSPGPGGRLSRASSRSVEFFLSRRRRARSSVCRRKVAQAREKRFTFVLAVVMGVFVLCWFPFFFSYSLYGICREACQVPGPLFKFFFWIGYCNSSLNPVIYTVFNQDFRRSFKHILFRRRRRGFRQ

human alpha2A receptors = target: T2, human alpha2A receptors (Homo sapiens, UniProt P08913); experiment: cell-based
T2 sequence (P08913 1-465): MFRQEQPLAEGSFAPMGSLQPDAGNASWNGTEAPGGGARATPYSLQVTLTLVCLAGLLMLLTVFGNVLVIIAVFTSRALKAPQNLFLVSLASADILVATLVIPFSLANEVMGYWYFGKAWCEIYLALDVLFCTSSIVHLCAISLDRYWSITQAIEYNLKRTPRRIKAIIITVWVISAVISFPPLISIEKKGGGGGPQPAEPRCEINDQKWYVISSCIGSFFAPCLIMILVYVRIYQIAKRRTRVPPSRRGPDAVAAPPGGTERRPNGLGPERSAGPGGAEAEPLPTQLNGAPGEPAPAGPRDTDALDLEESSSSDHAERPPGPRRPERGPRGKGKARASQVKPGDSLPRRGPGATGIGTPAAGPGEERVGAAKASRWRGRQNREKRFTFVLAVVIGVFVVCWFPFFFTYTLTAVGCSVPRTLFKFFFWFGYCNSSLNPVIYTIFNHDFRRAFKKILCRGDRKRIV
Method: Experiment 1: Determination of alpha2A and alpha2C Antagonistic Activity In Vitro
The growth medium was removed and the cells were incubated with the test compounds and the FLIPR Calcium 6 Assay reagent (Molecular Devices, CA, USA) for 2 h at 37° C. in dark. The test compounds (concentrations in cells 100 pM-10 μM) were dissolved in Probenecid-Ringer consisting of 150 mM NaCl, 3 mM KCl, 1.2 mM MgCl2, 1 mM CaCl2, 5 mM glucose, 20 mM HEPES and 2.5 mM probenecid (pH 7.4 adjusted with 1.0 M NaOH). […] All experiments were performed at 37° C. For agonism measurements the test compounds dissolved in Probenecid-Ringer were applied by FLIPR Tetra at 15 s time point. In order to determine antagonism, the cells were stimulated either with 100 nM adrenaline or noradrenaline and the test compounds were added to the cells 2 h before the experiment with the FLIPR Calcium 6 Assay reagent. […] Typically, there were four replicates at each concentration and six different dose levels. […] The minimum fluorescence value subtracted from the maximum value for each well was used in the calculations. ScreenWorks version 4.0 software was used for analyzing the results. Fitting of the antagonist dose-response results was performed with the free Hill equation and the IC50 values were fitted with IDBS XE software using model 200: y=(A+(B/(1+((x/C)̂D)))), where A is the curve maximum, B the curve minimum and C equals the EC50 value. D is slope factor (Hill). Kb was calculated with the Cheng-Prusoff equation Kb=A/((B/C)+1), where A is the IC50 of antagonist, B the concentration of agonist and C the EC50 of the agonist.

SMILES | IC50 (human alpha2C receptors) [nM] | Kb (human alpha2C receptors) [nM] | IC50 (human alpha2A receptors) [nM] | Kb (human alpha2A receptors) [nM]
O=C1C(=O)N([C@H]2CCCN(C[C@H]3COc4ccccc4O3)C2)C(=O)N1C1CCCC1 [example 127, 1-Cyclopentyl-3-((S)-1-(((S)-2,3-dihydrobenzo[b][1,4]dioxin-2-yl)methyl)piperidin-3-yl)imidazolidine-2,4,5-trione] | 0.027 | 0.003 | 8670 | 389
CCc1nc2ccc(F)cc2n1[C@H]1CCCN(C[C@H]2COc3ccccc3O2)C1 [example 84, 1-((S)-1-(((S)-2,3-Dihydrobenzo[b][1,4]dioxin-2-yl)methyl)piperidin-3-yl)-2-ethyl-6-fluoro-1H-benzo[d]imidazole] | < 0.1 | < 0.01 | 4330 | 195
O=C1C(=O)N([C@H]2CCCN(C[C@H]3COc4ccccc4O3)C2)C(=O)N1C1CCNCC1 [example 137, 1-((S)-1-(((S)-2,3-Dihydrobenzo[b][1,4]dioxin-2-yl)methyl)piperidin-3-yl)-3-(piperidin-4-yl)imidazolidine-2,4,5-trione dihydrochloride] | 5.5 | 0.554 | > 10000 | > 449
Cc1nc2cc(F)c(F)cc2n1[C@H]1CCCN(C[C@H]2COc3ccccc3O2)C1 [example 28, 1-((S)-1-(((S)-2,3-Dihydrobenzo[b][1,4]dioxin-2-yl)methyl)piperidin-3-yl)-5,6-difluoro-2-methyl-1H-benzo[d]imidazole] | 5.43 | 0.547 | > 10000 | > 449
Cc1nc2ccc(F)cc2n1[C@H]1CCCN(C[C@H]2COc3ccccc3O2)C1 [example 83, 1-((S)-1-(((S)-2,3-Dihydrobenzo[b][1,4]dioxin-2-yl)methyl)piperidin-3-yl)-6-fluoro-2-methyl-1H-benzo[d]imidazole] | < 0.1 | < 0.01 | > 10000 | > 449
O=C1c2ncsc2CN1[C@H]1CCCN(C[C@H]2COc3ccccc3O2)C1 [example 13, 5-((S)-1-(((S)-2,3-Dihydrobenzo[b][1,4]dioxin-2-yl)methyl)piperidin-3-yl)-5,6-dihydro-4H-pyrrolo[3,4-d]thiazol-4-one] | 22.4 | 2.26 | > 10000 | > 449
CC(C)(C)N1C(=O)C(=O)N([C@H]2CCCN(C[C@H]3COc4ccccc4O3)C2)C1=O [example 134, 1-tert-Butyl-3-((S)-1-(((S)-2,3-dihydrobenzo[b][1,4]dioxin-2-yl)methyl)piperidin-3-yl)imidazolidine-2,4,5-trione] | 0.796 | 0.08 | > 10000 | > 449
Cc1nc2ccccc2n1[C@H]1CCCN(C[C@H]2COc3ccccc3O2)C1 [example 150, 1-((S)-1-(((S)-2,3-Dihydrobenzo[b][1,4]dioxin-2-yl)methyl)piperidin-3-yl)-2-methyl-1H-benzo[d]imidazole] | < 0.1 | < 0.01 | 4480 | 201
O=C1C(=O)N([C@H]2CCCN(C[C@H]3COc4ccccc4O3)C2)C(=O)N1Cc1ccncc1 [example 140, 1-((S)-1-(((S)-2,3-Dihydrobenzo[b][1,4]dioxin-2-yl)methyl)piperidin-3-yl)-3-(pyridin-4-ylmethyl)imidazolidine-2,4,5-trione] | 2.19 | 0.22 | > 10000 | > 449
O=C1c2cccnc2C(=O)N1[C@H]1CCCN(C[C@H]2COc3ccccc3O2)C1 [example 75, 6-((S)-1-(((S)-2,3-Dihydrobenzo[b][1,4]dioxin-2-yl)methyl)piperidin-3-yl)-5H-pyrrolo[3,4-b]pyridine-5,7(6H)-dione] | 0.95 | 0.097 | > 10000 | > 449
CC(=O)NCc1ccc2c(c1)CN([C@H]1CCCN(C[C@H]3COc4ccccc4O3)C1)C2=O [example 71, N-((2-((S)-1-(((S)-2,3-Dihydrobenzo[b][1,4]dioxin-2-yl)methyl)piperidin-3-yl)-1-oxoisoindolin-5-yl)methyl)acetamide] | 0.12 | 0.012 | > 10000 | > 449
O=C1CN(C2CCCC2)C(=O)N1[C@H]1CCCN(C[C@H]2COc3ccccc3O2)C1 [example 106, 1-Cyclopentyl-3-((S)-1-(((S)-2,3-dihydrobenzo[b][1,4]dioxin-2-yl)methyl)piperidin-3-yl)imidazolidine-2,4-dione] | 0.1 | 0.01 | > 10000 | > 449
Cc1nc2cccnc2n1[C@H]1CCCN(C[C@H]2COc3ccccc3O2)C1 [example 156, 3-((S)-1-(((S)-2,3-Dihydrobenzo[b][1,4]dioxin-2-yl)methyl)-piperidin-3-yl)-2-methyl-3H-imidazo[4,5-b]pyridine] | 0.012 | 0.001 | 3580 | 161
O=C1C=C(c2ccccc2)CN1[C@H]1CCCN(C[C@H]2COc3ccccc3O2)C1 [example 39, 1-((S)-1-(((S)-2,3-Dihydrobenzo[b][1,4]dioxin-2-yl)methyl)piperidin-3-yl)-4-phenyl-1H-pyrrol-2(5H)-one] | 1.79 | 0.181 | > 10000 | > 449
CC1CCC(=O)N1[C@H]1CCCN(C[C@H]2COc3ccccc3O2)C1 (stereo partly drawn) [example 30, 1-((S)-1-(((S)-2,3-Dihydrobenzo[b][1,4]dioxin-2-yl)methyl)piperidin-3-yl)-5-methylpyrrolidin-2-one] | 1.11 | 0.11 | > 1000 | > 45
CNCc1nc2ccc(Cl)cc2n1[C@H]1CCCN(C[C@H]2COc3ccccc3O2)C1 [example 153, 1-(6-Chloro-1-((S)-1-(((S)-2,3-dihydrobenzo[b][1,4]dioxin-2-yl)methyl)piperidin-3-yl)-1H-benzo[d]imidazol-2-yl)-N-methylmethanamine] | 3580 | 361 | > 10000 | > 449
O=C1c2cccc(F)c2CN1[C@H]1CCCN(C[C@H]2COc3ccccc3O2)C1 [example 57, 2-((S)-1-(((S)-2,3-Dihydrobenzo[b][1,4]dioxin-2-yl)methyl)piperidin-3-yl)-4-fluoroisoindolin-1-one hydrochloride] | 1.54 | 0.15 | > 10000 | > 449
CN(C)CCN1C(=O)C(=O)N([C@H]2CCCN(C[C@H]3COc4ccccc4O3)C2)C1=O [example 135, 1-((S)-1-(((S)-2,3-Dihydrobenzo[b][1,4]dioxin-2-yl)methyl)-piperidin-3-yl)-3-(2-(dimethylamino)ethyl)imidazolidine-2,4,5-trione] | 444 | 44.7 | > 10000 | > 449
CCN1C(=O)CC(=O)N([C@H]2CCCN(C[C@H]3COc4ccccc4O3)C2)C1=O [example 96, 1-((S)-1-(((S)-2,3-Dihydrobenzo[b][1,4]dioxin-2-yl)methyl)-piperidin-3-yl)-3-ethylpyrimidine-2,4,6(1H,3H,5H)-trione] | 15.1 | 1.52 | > 10000 | > 449
O=S1(=O)c2ccccc2CN1[C@H]1CCCN(C[C@H]2COc3ccccc3O2)C1 [example 81, 2-((S)-1-(((S)-2,3-Dihydrobenzo[b][1,4]dioxin-2-yl)methyl)piperidin-3-yl)-2,3-dihydrobenzo[d]isothiazole 1,1-dioxide] | 653 | 65.7 | > 10000 | > 449
O=C1CN(C2CC2)C(=O)N1[C@H]1CCCN(C[C@H]2COc3ccccc3O2)C1 [example 119, 1-Cyclopropyl-3-((S)-1-(((S)-2,3-dihydrobenzo[b][1,4]dioxin-2-yl)methyl)piperidin-3-yl)imidazolidine-2,4-dione] | 17.5 | 1.76 | > 10000 | > 449
CN(C)C(=O)CN1C(=O)N([C@H]2CCCN(C[C@H]3COc4ccccc4O3)C2)C(=O)C12CC2 [example 124, 2-(6-((S)-1-(((S)-2,3-Dihydrobenzo[b][1,4]dioxin-2-yl)methyl)-piperidin-3-yl)-5,7-dioxo-4,6-diazaspiro[2.4]heptan-4-yl)-N,N-dimethylacetamide] | 1.47 | 0.131 | > 10000 | > 449
CN1CCCN([C@H]2CCCN(C[C@H]3COc4ccccc4O3)C2)C1=O [example 54, 1-((S)-1-(((S)-2,3-Dihydrobenzo[b][1,4]dioxin-2-yl)methyl)piperidin-3-yl)-3-methyltetrahydropyrimidin-2(1H)-one] | 4.95 | 0.5 | > 10000 | > 449
